Data on one molecule can be found in US20130130909A1, “DCMU RESISTANCE IN NANNOCHLOROPSIS” (priority 2011, published 2013).

In one assay the test system is algae of genus Chlorella. In words: DCMU and fluorescence under low actinic light, Chlorella culture. It is filed as cell-based. The settings on record: 100 nanomolar DCMU. An excerpt: (§1) FIG. 3 (“FIG. 3”) is a graph of relative fluorescence rise versus percentage contaminating species for the algae of genus Chlorella as referred to in FIG. 2. In FIG. 3, the impact of the actinic light is seen in the relative fluorescence rise to the maximum fluorescence yield observed during an intense saturating pulse, during the low level actinic light treatment for the Chlorella culture, the same rise being absent from the Nannochloropsis culture.

In assay [1] the test system is algae of genus Nannochloropsis ("W2"). In words: DCMU incubation and fluorescence under low actinic light, Nannochloropsis culture. To be noted: 100 nanomolar DCMU. The class given is cell-based. On the procedure:
Typically, DCMU is instantaneously efficacious at concentrations in the 0.1 micromolar to 50 micromolar range. The inventors herein discovered that algae of the genus Nannochloropsis, however, generally requires higher concentrations and relatively lengthy incubation periods for the effects of DCMU to take place.
as §1

The subject of assay [2] is weed algae of genus Tetraselmis. Kind of assay: DCMU administered to 1 million liter open pond raceway systems with Nannochloropsis cultures invaded by Tetraselmis. It is filed as in vivo. The method, then: The inventors utilized commercially available DCMU at a field research site to kill the persistent weed algae of genus Tetraselmis. DCMU was administered to six 1 million liter open pond raceway systems wherein Nannochloropis cultures were cultivated at a density of approximately 270 milligrams per liter. Tetraselmis invasion in the ponds is shown in FIG. 6, and is quantified in Table 2 as a percentage of mass. The higher the percentage of mass, the higher the Tetraselmis invasion. The six 1 million liter open pond raceway systems are denoted in FIG. 6, Table 1, and Table 2 as Pond A1, Pond A2, Pond A3, Pond B1, Pond B2, and Pond B3.
Consequently, as little as 100 grams, and as much as 400 grams, were needed. The commercial DCMU source was 90% DCMU by mass, so 90 grams and 360 grams effective amounts of DCMU (M.W. 233 amu) in 1 million liters of volume converts to DCMU concentrations of 0.38 micromolar and 1.55 micromolar, respectively.
Note “D” denotes the dumping of the contents of the pond.

Where [3] appears, read: corrected for 90% DCMU by mass, 1 million liters.

In the case of `CN(C)C(=O)Nc1ccc(Cl)c(Cl)c1` [DCMU, 3-(3,4-dichlorophenyl)-1,1-dimethylurea], the “effect of actinic light on PSII reaction centers in presence of DCMU, Chlorella” value with algae of genus Chlorella (50 micromolar quanta m^-2 s^-1 actinic light, FIG. 2) is “completely closes PSII reaction centers”. In addition, the “herbicidal effect on Chlorella” value with algae of genus Chlorella (Chlorella isolated from an invaded pond) is recorded as “strong herbicidal effect”. Besides, in assay [1] (24 hour incubation period), the “resistance of Nannochloropsis to DCMU” value is “completely resistant”. For the same molecule, the “effect of actinic light on PSII reaction centers in presence of DCMU, Nannochloropsis” value in assay [1] (50 micromolar quanta m^-2 s^-1 actinic light, FIG. 1) was “barely has an effect”. For the same molecule, in assay [2] (90 grams in 1 million liters), the “effective DCMU concentration, lowest” value amounted to 0.38 µM. Moreover, the “effective DCMU concentration, highest” value in assay [2] (360 grams in 1 million liters) stood at 1.55 µM. Moreover, in assay [2] (setting [3]), the “effective amount of DCMU, highest” value was 360 grams and the “effective amount of DCMU, lowest” value is listed as 90 grams.
